Laboratory results from patent publication US9096500B2, “Acyl sulfonamide compounds” (Pfizer Limited, priority 2010, dated 2015).

Molecular target: T1, Nav1.7 (or SCN9A) channel (Homo sapiens, UniProt Q15858)
T1 construct: expressed in transfected cells
Assay: Nav1.7 (hSCN9A) electrophysiology assay, PatchXpress platform
Assay type: cell-based
Details: estimated IC50 from single point electrophysiology data, HEK cells stably expressing hSCN9A, held at V1/2 of inactivation, read-out: Nav1.7 EIC50
Method: The ability of the compounds of formula (I) to block the Nav1.7 (or SCN9A) channel were measured using the assay described below.
Human Embryonic Kidney (HEK) cells were transfected with an hSCN9A construct using lipofectamine reagent (Invitrogen), using standard techniques. Cells stably expressing the hSCN9A constructs were identified by their resistance to G-418 (400 μg/ml). Clones were screened for expression using the whole-cell voltage-clamp technique.
HEK cells stably transfected with hSCN9A were maintained in DMEM medium supplemented with 10% heat-inactivated fetal bovine serum and 400 μg/ml G-418 in an incubator at 37° C. with a humidified atmosphere of 10% CO2. For HTS, cells were harvested from flasks by trypsinization and replated in an appropriate multi-well plate (typically 96 or 384 wells/plate) such that confluence would be achieved within 24 hours of plating. For electrophysiological studies, cells were removed from the culture flask by brief trypsinization and re-plated at low density onto glass cover slips. Cells were typically used for electrophysiological experiments within 24 to 72 hours after plating.
Cover slips containing HEK cells expressing hSCN9A were placed in a bath on the stage of an inverted microscope and perfused (approximately 1 ml/minutes) with extracellular solution of the following composition: 138 mM NaCl, 2 mM CaCl2, 5.4 mM KCl, 1 mM MgCl2, 10 mM glucose, and 10 mM HEPES, pH 7.4, with NaOH. […] The osmolarity of the extracellular and intracellular solutions was 300 mOsm/kg and 295 mOsm/kg, respectively. All recordings were made at room temperature (22-24° C.) using AXOPATCH 200B amplifiers and PCLAMP software (Axon Instruments, Burlingame, Calif.).
hSCN9A currents in HEK cells were measured using the whole-cell configuration of the patch-clamp technique (Hamill et al., 1981). Uncompensated series resistance was typically 2 to 5 mega ohms and >85% series resistance compensation was routinely achieved. […] Current records were acquired at 20 to 50 KHz and filtered at 5 to 10 KHz.
HEK cells stably transfected with hSCN9A were viewed under Hoffman contrast optics and placed in front of an array of flow pipes emitting either control or compound-containing extracellular solutions. All compounds were dissolved in dimethyl sulfoxide to make 10 mM stock solutions, which were then diluted into extracellular solution to attain the final concentrations desired. […] The voltage-dependence of inactivation was determined by applying a series of depolarizing prepulses (8 sec long in 10 mV increments) from a negative holding potential. The voltage was then immediately stepped to 0 mV to assess the magnitude of the sodium current. Currents elicited at 0 mV were plotted as a function of prepulse potential to allow estimation of the voltage at which 50% of the channels were inactivated (midpoint of inactivation or V1/2). Compounds were tested for their ability to inhibit hSCN9A sodium channels by activating the channel with a 20 msec voltage step to 0 mV following an 8 second conditioning prepulse to the empirically determined V1/2. Compound effect (% inhibition) was determined by difference in current amplitude before and after application of test compounds. […] Inhibition values <20% and >80% were excluded from the calculation.
Electrophysiological assays were conducted with PatchXpress 7000 hardware and associated software (Molecular Devices Corp). All assay buffers and solutions were identical to those used in conventional whole-cell voltage clamp experiments described above. hSCN9A cells were grown as above to 50%-80% confluency and harvested by trypsinization. Trypsinized cells were washed and resuspended in extracellular buffer at a concentration of 1×10^6 cells/ml. The onboard liquid handling facility of the PatchXpress was used for dispensing cells and application of test compounds.

T1 sequence (Q15858 whole entry): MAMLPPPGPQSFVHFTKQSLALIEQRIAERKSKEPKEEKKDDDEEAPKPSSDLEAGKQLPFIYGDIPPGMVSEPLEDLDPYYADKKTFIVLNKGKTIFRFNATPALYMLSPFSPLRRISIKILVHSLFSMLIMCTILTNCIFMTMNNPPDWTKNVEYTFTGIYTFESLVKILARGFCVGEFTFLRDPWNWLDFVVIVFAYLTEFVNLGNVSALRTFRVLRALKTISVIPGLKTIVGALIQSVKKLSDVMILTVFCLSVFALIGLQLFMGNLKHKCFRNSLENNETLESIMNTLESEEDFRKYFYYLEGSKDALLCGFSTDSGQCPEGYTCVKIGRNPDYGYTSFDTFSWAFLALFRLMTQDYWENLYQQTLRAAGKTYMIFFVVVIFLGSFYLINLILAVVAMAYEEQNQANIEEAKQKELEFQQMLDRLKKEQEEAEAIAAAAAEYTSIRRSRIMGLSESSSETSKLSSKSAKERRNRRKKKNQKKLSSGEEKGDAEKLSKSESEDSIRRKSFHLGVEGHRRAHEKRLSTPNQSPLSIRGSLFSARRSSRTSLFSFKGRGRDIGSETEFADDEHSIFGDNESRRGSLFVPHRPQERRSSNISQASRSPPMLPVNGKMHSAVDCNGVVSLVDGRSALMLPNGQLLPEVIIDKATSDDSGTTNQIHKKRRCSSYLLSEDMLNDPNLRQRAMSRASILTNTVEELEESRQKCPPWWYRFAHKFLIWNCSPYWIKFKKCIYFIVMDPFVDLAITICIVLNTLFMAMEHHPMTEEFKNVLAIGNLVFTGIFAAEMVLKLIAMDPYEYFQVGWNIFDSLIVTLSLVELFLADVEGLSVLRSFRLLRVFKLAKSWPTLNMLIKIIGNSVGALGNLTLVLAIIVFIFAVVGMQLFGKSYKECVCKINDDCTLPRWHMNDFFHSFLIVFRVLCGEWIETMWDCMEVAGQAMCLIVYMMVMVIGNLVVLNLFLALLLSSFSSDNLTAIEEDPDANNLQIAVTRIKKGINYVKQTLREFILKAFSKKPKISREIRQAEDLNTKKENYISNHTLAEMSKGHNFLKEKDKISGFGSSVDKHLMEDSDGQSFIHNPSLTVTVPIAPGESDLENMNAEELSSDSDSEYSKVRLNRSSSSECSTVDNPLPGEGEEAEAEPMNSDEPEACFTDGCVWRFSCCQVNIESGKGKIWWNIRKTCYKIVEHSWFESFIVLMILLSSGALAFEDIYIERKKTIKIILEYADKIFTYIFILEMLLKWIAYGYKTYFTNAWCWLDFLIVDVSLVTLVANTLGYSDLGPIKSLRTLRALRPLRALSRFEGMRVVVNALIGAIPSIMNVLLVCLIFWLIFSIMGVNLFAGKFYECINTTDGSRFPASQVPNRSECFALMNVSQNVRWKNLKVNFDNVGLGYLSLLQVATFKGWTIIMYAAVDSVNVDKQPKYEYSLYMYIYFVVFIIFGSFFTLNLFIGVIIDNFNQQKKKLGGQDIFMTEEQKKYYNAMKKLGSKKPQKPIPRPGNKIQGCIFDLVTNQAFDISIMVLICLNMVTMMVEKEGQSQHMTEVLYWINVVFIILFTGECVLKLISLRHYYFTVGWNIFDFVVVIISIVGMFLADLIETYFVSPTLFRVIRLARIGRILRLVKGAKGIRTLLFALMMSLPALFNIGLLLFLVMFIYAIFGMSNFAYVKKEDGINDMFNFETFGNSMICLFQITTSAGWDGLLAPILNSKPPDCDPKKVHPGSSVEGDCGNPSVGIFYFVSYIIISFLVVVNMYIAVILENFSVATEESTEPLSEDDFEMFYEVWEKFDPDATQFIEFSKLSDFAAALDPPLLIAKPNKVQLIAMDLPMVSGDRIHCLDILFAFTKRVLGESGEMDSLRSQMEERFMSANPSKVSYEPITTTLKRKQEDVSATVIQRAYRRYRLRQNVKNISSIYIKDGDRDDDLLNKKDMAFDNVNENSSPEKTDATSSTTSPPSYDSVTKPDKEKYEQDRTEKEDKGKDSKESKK

Row | Structure (SMILES) | IC50 [µM]
1 | CS(=O)(=O)NC(=O)c1ccc(OCc2ccccc2OC(F)(F)F)c(C#N)c1 [Example 76, 3-cyano-N-(methylsulfonyl)-4-{[2-(trifluoromethoxy)benzyl]oxy}benzamide] | 10
2 | CS(=O)(=O)NC(=O)c1ccc(OCc2ccc(Cl)cc2)c(C#N)c1 [Example 77, 4-[(4-chlorobenzyl)oxy]-3-cyano-N-(methylsulfonyl)benzamide] | > 3
3 | CS(=O)(=O)NC(=O)c1cc(Cl)c(OCc2ccccc2Cl)cc1F [Example 78, 5-chloro-4-[(2-chlorobenzyl)oxy]-2-fluoro-N-(methylsulfonyl)benzamide] | 0.39
4 | CS(=O)(=O)NC(=O)c1ccc(OCc2cccc(C#N)c2)c(Cl)c1 [Example 80, 3-chloro-4-[(3-cyanobenzyl)oxy]-N-(methylsulfonyl)benzamide] | > 3
5 | COc1cccc(COc2ccc(C(=O)NS(C)(=O)=O)cc2)c1 [Example 82, 4-[(3-methoxybenzyl)oxy]-N-(methylsulfonyl)benzamide] | 5.5
6 | CS(=O)(=O)NC(=O)c1cc(Cl)c(OCc2ccc(-c3ccccc3)cc2)cc1F [Example 83, 4-(biphenyl-4-ylmethoxy)-5-chloro-2-fluoro-N-(methylsulfonyl)benzamide] | 0.62
7 | CS(=O)(=O)NC(=O)c1cc(Cl)c(OCc2ccc(Cl)cc2)cc1F [Example 84, 5-chloro-4-[(4-chlorobenzyl)oxy]-2-fluoro-N-(methylsulfonyl)benzamide] | 6.5
8 | CS(=O)(=O)NC(=O)c1ccc(OCc2ccc(-c3ccccc3)cc2)cc1 [Example 85, 4-(biphenyl-4-ylmethoxy)-N-(methylsulfonyl)benzamide] | 0.45
9 | CS(=O)(=O)NC(=O)c1cc(Cl)c(OCc2cccc(Cl)c2)cc1F [Example 86, 5-chloro-4-[(3-chlorobenzyl)oxy]-2-fluoro-N-(methylsulfonyl)benzamide] | 0.58
10 | CS(=O)(=O)NC(=O)c1cc(Cl)c(OCc2ccccc2-c2ccccc2)cc1F [Example 87, 4-(biphenyl-2-ylmethoxy)-5-chloro-2-fluoro-N-(methylsulfonyl)benzamide] | 0.64
11 | CS(=O)(=O)NC(=O)c1ccc(OCc2ccc(Cl)cc2)cc1 [Example 88, 4-[(4-chlorobenzyl)oxy]-N-(methylsulfonyl)benzamide] | 6.1
12 | COc1ccc(COc2ccc(C(=O)NS(C)(=O)=O)cc2)cc1 [Example 89, 4-[(4-methoxybenzyl)oxy]-N-(methylsulfonyl)benzamide] | > 3
13 | CS(=O)(=O)NC(=O)c1ccc(OCc2ccc(-n3cccn3)cc2)c(Cl)c1 [Example 90, 3-chloro-N-(methylsulfonyl)-4-{[4-(1H-pyrazol-1-yl)benzyl]oxy}benzamide] | > 3
14 | CS(=O)(=O)NC(=O)c1ccc(OCc2cccc(Cl)c2)cc1 [Example 91, 4-[(3-chlorobenzyl)oxy]-N-(methylsulfonyl)benzamide] | 3.5
15 | CS(=O)(=O)NC(=O)c1ccc(OCc2cccc(OC(F)(F)F)c2)cc1 [Example 92, N-(methylsulfonyl)-4-{[3-(trifluoromethoxy)benzyl]oxy}benzamide] | 0.59
16 | CS(=O)(=O)NC(=O)c1ccc(OCc2ccccc2-c2ccccc2)c(C#N)c1 [Example 93, 4-(biphenyl-2-ylmethoxy)-3-cyano-N-(methylsulfonyl)benzamide] | > 3
17 | CS(=O)(=O)NC(=O)c1ccc(OCc2ccccc2-c2ccccc2)cc1 [Example 94, 4-(biphenyl-2-ylmethoxy)-N-(methylsulfonyl)benzamide] | 4.3
18 | COc1ccc(OCc2cc(F)c(C(=O)NS(C)(=O)=O)cc2F)cc1F [Example 97, 2,5-difluoro-4-[(3-fluoro-4-methoxyphenoxy)methyl]-N-(methylsulfonyl)benzamide] | 1.5

Row | Structure (SMILES) | IC50 [µM]
19 | COc1cc(Cl)cc(OCc2cc(F)c(C(=O)NS(C)(=O)=O)cc2F)c1 [Example 98, 4-[(3-chloro-5-methoxyphenoxy)methyl]-2,5-difluoro-N-(methylsulfonyl)benzamide] | 0.14
20 | CS(=O)(=O)NC(=O)c1cc(F)c(COc2ccc3cc(C#N)ccc3c2)cc1F [Example 99, 4-{[(6-cyano-2-naphthyl)oxy]methyl}-2,5-difluoro-N-(methylsulfonyl)benzamide] | 0.82
21 | Cc1ccc(Cl)cc1OCc1cc(F)c(C(=O)NS(C)(=O)=O)cc1F [Example 100, 4-[(5-chloro-2-methylphenoxy)methyl]-2,5-difluoro-N-(methylsulfonyl)benzamide] | 0.39
22 | CS(=O)(=O)NC(=O)c1cc(F)c(COc2ccc(C#N)c(C(F)(F)F)c2)cc1F [Example 101, 4-{[4-cyano-3-(trifluoromethyl)phenoxy]methyl}-2,5-difluoro-N-(methylsulfonyl)benzamide] | 1.9
23 | Cc1c(OCc2cc(F)c(C(=O)NS(C)(=O)=O)cc2F)cccc1-n1cccn1 [Example 102, 2,5-difluoro-4-{[2-methyl-3-(1H-pyrazol-1-yl)phenoxy]methyl}-N-(methylsulfonyl)benzamide] | > 3
24 | CS(=O)(=O)NC(=O)c1cc(F)c(COc2ccc(C#N)c(C#N)c2)cc1F [Example 103, 4-[(3,4-dicyanophenoxy)methyl]-2,5-difluoro-N-(methylsulfonyl)benzamide] | 6.1
25 | CS(=O)(=O)NC(=O)c1cc(F)c(COc2ccc(C#N)cc2F)cc1F [Example 104, 4-[(4-cyano-2-fluorophenoxy)methyl]-2,5-difluoro-N-(methylsulfonyl)benzamide] | 5.1
26 | Cc1cc(Cl)cc(OCc2cc(F)c(C(=O)NS(C)(=O)=O)cc2F)c1 [Example 105, 4-[(3-chloro-5-methylphenoxy)methyl]-2,5-difluoro-N-(methylsulfonyl)benzamide] | 0.1
27 | CN1CCC(c2cccc(OCc3cc(F)c(C(=O)NS(C)(=O)=O)cc3F)c2)CC1 [Example 106, 2,5-difluoro-4-{[3-(1-methylpiperidin-4-yl)phenoxy]methyl}-N-(methylsulfonyl)benzamide] | 9.2
28 | CC(C)c1cccc(OCc2cc(F)c(C(=O)NS(C)(=O)=O)cc2F)c1 [Example 107, 2,5-difluoro-4-[(3-isopropylphenoxy)methyl]-N-(methylsulfonyl)benzamide] | 0.33
29 | CS(=O)(=O)NC(=O)c1cc(F)c(COc2cc(F)cc(C(F)(F)F)c2)cc1F [Example 108, 2,5-difluoro-4-{[3-fluoro-5-(trifluoromethyl)phenoxy]methyl}-N-(methylsulfonyl)benzamide] | 0.087
30 | CS(=O)(=O)NC(=O)c1cc(F)c(COc2cccc(C(F)(F)F)c2)cc1F [Example 109, 2,5-difluoro-N-(methylsulfonyl)-4-{[3-(trifluoromethyl)phenoxy]methyl}benzamide] | 0.14
31 | CS(=O)(=O)NC(=O)c1cc(F)c(COc2ccccc2F)cc1F [Example 110, 2,5-difluoro-4-[(2-fluorophenoxy)methyl]-N-(methylsulfonyl)benzamide] | 2.2
32 | CS(=O)(=O)NC(=O)c1cc(F)c(COc2cccc(F)c2F)cc1F [Example 111, 4-[(2,3-difluorophenoxy)methyl]-2,5-difluoro-N-(methylsulfonyl)benzamide] | > 1
33 | CCc1ccccc1OCc1cc(F)c(C(=O)NS(C)(=O)=O)cc1F [Example 112, 4-[(2-ethylphenoxy)methyl]-2,5-difluoro-N-(methylsulfonyl)benzamide] | 1.4
34 | CN1CCN(c2cccc(OCc3cc(F)c(C(=O)NS(C)(=O)=O)cc3F)c2)CC1 [Example 113, 2,5-difluoro-4-{[3-(4-methylpiperazin-1-yl)phenoxy]methyl}-N-(methylsulfonyl)benzamide] | 11
35 | Cc1ccc(OCc2cc(F)c(C(=O)NS(C)(=O)=O)cc2F)cc1 [Example 115, 2,5-difluoro-4-[(4-methylphenoxy)methyl]-N-(methylsulfonyl)benzamide] | 0.62
